Results on 11 compounds are retold here after ChEMBL document CHEMBL1201862, “PubChem BioAssay data set” (2004).

Each structure is given as a SMILES string.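 A five-concentration, 48-hour dose response in 96-well plates underlies each endpoint, interpolated linearly between surrounding concentrations. GI50 is the concentration that inhibits growth by half.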 Activity calls are given as the source filed them. Cut-off read from the data, not from the text of the source: active = GI50 up to about 1.1 µM and inactive = higher.

Holding throughout (assay): NCI anticancer screen, dose series, 48 h
For test [1], the system named is SF-295.
Test [2] has as its system NCI/ADR-RES.
The test system of test [3] is SR.
In test [4] the test system is 786-0.
The subject of test [5] is CAKI-1.
Test [6] concerns OVCAR-5.
Test [7] relates to UACC-257.
Test [8] has as its system SN12C.
Test [9] concerns KM12.
The test system of test [10] is HCT-15.
In test [11] the test system is OVCAR-4.
In test [12] the test system is SF-539.
In test [13] the test system is TK-10.
Test [14] has as its system RXF 393.
For test [15], the system named is U-251.
The subject of test [16] is HCC 2998.
The test system of test [17] is EKVX.
The test system of test [18] is SK-OV-3.
Test [19] relates to SK-MEL-2.
For test [20], the system named is NCI-H522.

In the case of `O=c1cc(NNCc2ccccc2)[nH]c(=O)[nH]1`, the GI50 in test [1], in [2], in test [3], in [4], in test [5] and in test [6] was > 100 µM (inactive) each time. Besides, the GI50 in test [7] was > 100 µM (inactive); in test [8], > 100 µM (inactive); in test [9] it was > 100 µM (inactive); in test [10], over 100 µM; in [11], > 100 µM (inactive); in test [12], > 100 µM (inactive). Also, the GI50 in [13], in test [14], in test [15], in test [16] and in test [17] was > 100 µM (inactive) in each case.
For the compound `CCOP(=O)(OCC)C(C)(C)OC(=O)NC(F)(F)F`, the GI50 in [1], in test [18], in test [2], in test [3], in test [4] and in test [5] was > 100 µM (inactive) in each case. Further, the GI50 in test [6] is > 100 µM (inactive); in test [7] it was > 100 µM (inactive); in [19] it was > 100 µM (inactive); in test [8] it was > 100 µM (inactive); in test [9], > 100 µM (inactive); in [10], over 100 µM. Also, the GI50 in [11], in [12], in test [13], in test [14], in test [15] and in test [16] was > 100 µM (inactive) throughout. The GI50 in [17] was > 100 µM (inactive).
Take `CCn1c2ccccc2c2ccc(C3C4C(=O)N(c5cccc6ccccc56)C(=O)C4ON3C(C(N)=O)c3ccccc3)cc21` (stereo unspecified): the GI50 was > 25 µM (inactive) in test [1]; > 25 µM (inactive) in test [18]; > 25 µM (inactive) in test [2]; 9.12 µM (inactive) in test [3]; 21.2 µM (inactive) in [4]; 4.66 µM (inactive) in test [5]. The GI50 in [6] was 15.1 µM (inactive); in [7], 7.73 µM (inactive); in [19], 12.4 µM (inactive); in test [8] it was 16.7 µM (inactive); in test [9], 9.95 µM (inactive); in test [10], 13.3 µM. The GI50 is 14.6 µM (inactive) in [11]; 7.59 µM (inactive) in [12]; 7.16 µM (inactive) in test [13]; 9.89 µM (inactive) in [14]; 10.8 µM (inactive) in test [15]; > 25 µM (inactive) in test [20]. In test [17], the GI50 was 12.9 µM (inactive).
Take `COC(OC)C(O)C1OC=CC1n1cnc2c(N)ncnc21` (stereo unspecified): the GI50 in test [1], in test [18], in test [2], in test [3], in test [4] and in [5] was > 100 µM (inactive) in each case. Besides, the GI50 in test [7] was > 100 µM (inactive); in test [19], > 100 µM (inactive); in test [8] it was > 100 µM (inactive); in test [9], > 100 µM (inactive); in test [10], over 100 µM; in test [11], > 100 µM (inactive). Moreover, the GI50 was > 100 µM (inactive) in test [12]; > 100 µM (inactive) in [13]; 13 µM (inactive) in test [14]; > 100 µM (inactive) in test [15]; > 100 µM (inactive) in test [16]; > 100 µM (inactive) in [17].
In the case of `CC1(C)C2C=CC1(C)C1(CC2)OCCO1` (stereo unspecified), the GI50 in [1], in test [18], in test [2], in test [3], in [4] and in test [6] was > 100 µM (inactive) throughout. Besides, the GI50 in test [7] is > 100 µM (inactive); in [19] it was > 100 µM (inactive); in test [8], > 100 µM (inactive); in test [9], > 100 µM (inactive); in [10], over 100 µM; in [11], > 100 µM (inactive). Also, the GI50 in [12], in test [13], in test [14], in test [15] and in [16] was > 100 µM (inactive) throughout.
For the compound `COc1cc(-c2ccccc2N)c2cccnc2c1OC`, the GI50 in [1] is 1.54 µM (inactive); in test [18], 9.57 µM (inactive); in test [2], 10.4 µM (inactive); in [3] it was 1.67 µM (inactive); in test [4], 2.83 µM (inactive); in test [5], 2.63 µM (inactive). Moreover, the GI50 in test [7] is 10.1 µM (inactive); in test [19], 12.9 µM (inactive); in test [8] it was 3.93 µM (inactive); in test [9] it was 6.07 µM (inactive); in test [10], 3.58 µM; in test [11], 6.3 µM (inactive). The GI50 in test [12] is 6.41 µM (inactive); in test [13] it was 10.1 µM (inactive); in [14] it was 15.2 µM (inactive); in test [15], 4.21 µM (inactive); in test [20] it was 3.59 µM (inactive); in [17], 5.06 µM (inactive).
Turning to `CCOC(=O)C1(C(=O)OCC)OC(C)=NC1(C(=O)OC)C(=O)OC`, the GI50 was > 100 µM (inactive) in test [1]; > 100 µM (inactive) in test [18]; > 100 µM (inactive) in test [2]; > 27.7 µM (inactive) in [3]; > 100 µM (inactive) in test [4]; > 100 µM (inactive) in [5]. Further, the GI50 is > 100 µM (inactive) in test [6]; > 100 µM (inactive) in test [7]; > 100 µM (inactive) in [19]; > 100 µM (inactive) in test [8]; > 100 µM (inactive) in test [9]; over 100 µM in [10]. For the same compound, the GI50 in test [11], in test [12], in test [13], in [14], in test [15] and in [16] was > 100 µM (inactive) throughout. Also, the GI50 in [17] is > 26.2 µM (inactive).
In the case of `O=C(CSc1nc2ccc(I)cc2c(=O)n1Cc1ccccc1)Nc1ccccc1`, the GI50 in test [1] is 14.9 µM (inactive); in test [18] it was 12.1 µM (inactive); in [2], 13.8 µM (inactive); in test [3] it was 11.2 µM (inactive); in [4], 8.57 µM (inactive); in [5] it was 12.9 µM (inactive). The GI50 in test [6] was 30.6 µM (inactive); in test [19] it was 13.8 µM (inactive); in test [8], 19.6 µM (inactive); in test [9] it was 94.4 µM (inactive); in test [10], 41.5 µM; in test [11] it was 14.3 µM (inactive). In addition, the GI50 in [12] was 3.08 µM (inactive); in test [14], 10 µM (inactive); in test [15] it was 14.3 µM (inactive); in test [20], 16 µM (inactive); in test [17], 3.55 µM (inactive).
As to `O=C(c1ccccc1)N1CCN(C(=S)NC2CCCCC2)C1=S`, the GI50 in test [1] is 20.9 µM (inactive); in test [18] it was 25.7 µM (inactive); in test [2] it was 17.7 µM (inactive); in [3] it was 28.5 µM (inactive); in test [4], 21.8 µM (inactive); in test [5], 24 µM (inactive). The GI50 in test [6] is 21.7 µM (inactive); in test [7], 18.7 µM (inactive); in test [19], 4.58 µM (inactive); in test [8], 17.8 µM (inactive); in test [9] it was 16 µM (inactive); in [10], 15.8 µM. Further, the GI50 was 18.9 µM (inactive) in test [11]; 13.5 µM (inactive) in [12]; 25.8 µM (inactive) in [13]; 9.89 µM (inactive) in [15]; 16.4 µM (inactive) in [16]; 15.8 µM (inactive) in test [20]. In test [17], the GI50 was 16.1 µM (inactive).
Consider `C#CCCOC(=O)c1ccccc1OC(C)=O`, for which the GI50 in test [1], in [18], in test [2], in [3], in test [4] and in test [5] was > 100 µM (inactive) in each case. Further, the GI50 was > 100 µM (inactive) in [6]; > 100 µM (inactive) in test [7]; > 100 µM (inactive) in test [19]; > 100 µM (inactive) in test [8]; > 100 µM (inactive) in [9]; over 100 µM in test [10]. Besides, the GI50 was > 100 µM (inactive) in test [11]; > 100 µM (inactive) in test [12]; > 100 µM (inactive) in [13]; > 100 µM (inactive) in test [14]; > 100 µM (inactive) in [15]; 63.7 µM (inactive) in [20]. Also, the GI50 in [17] is > 100 µM (inactive).
Take `O=C(/C=C/c1ccc(O)cc1)c1cc(-c2cc(CCC(=O)c3ccc(O)cc3O)ccc2O)c(O)cc1O`: the GI50 was 22.3 µM (inactive) in test [1]; 16.9 µM (inactive) in test [18]; > 50 µM (inactive) in test [2]; 10.4 µM (inactive) in test [3]; 25.6 µM (inactive) in [4]; > 50 µM (inactive) in test [5]. For the same compound, the GI50 is > 50 µM (inactive) in [6]; > 50 µM (inactive) in test [7]; 33.7 µM (inactive) in test [19]; 32.2 µM (inactive) in test [8]; 19.8 µM (inactive) in [9]; over 50 µM in test [10]. Further, the GI50 is 19.7 µM (inactive) in test [11]; 10.8 µM (inactive) in [12]; 18.1 µM (inactive) in [13]; 41.5 µM (inactive) in test [14]; 17.5 µM (inactive) in [15]; 22.3 µM (inactive) in test [20]. In addition, the GI50 in test [17] was > 50 µM (inactive).
